# Source: patent US7635686B2, “Therapeutically useful triethyleneglycol cholesteryl oligonucleotides” (Bioniche Life Sciences, Inc., priority 2001, dated 2009)
# {TEG-Chol} = cholesteryl attached through a triethyleneglycol (TEG) spacer, added as cholesteryl-TEG phosphoramidite
# How the values were obtained:
# MCF-7 cells = assay: MATRIGEL outgrowth after 1 hr pre-incubation, MCF-7; assay type: cell-based, human; conditions: MCF-7, 53 μM pre-incubation 1 hr, 3 days on MATRIGEL, FIG. 1
# Protocol: (§1) Various in vitro and in vivo assays may be used to evaluate the influence of the extracellular microenvironment on behavior of normal cells and tumor cells. Such assays may employ MATRIGEL® (Becton Dickinson, Franklin Lakes, N.J.), which is a solubilized basement membrane preparation extracted from the Engelbreth-Holm-Swarm murine sarcoma.
# (§2) MCF-7, MDA-MB-231 (MDA-231), Hs578T and Mpanc-96 cells were cultured separately in regular culture medium, trypsinized, and counted. 100×10^3 of MDA-231 cells, 100×10^3 of Hs578T cells, 150×10^3 of MCF-7 cells and 150×10^3 of Mpanc-96 cells were separately pre-incubated for 1 hr at 37° C. in a final concentration of 53 μM of SEQ ID NO:1, 53 μM of SEQ ID NO:5 or RCM, and plated on top of MATRIGEL®-coated plates (MATRIGEL® Basement membrane matrix coated cellware 24-well plate,) for 3 days. Plates were fixed with 10% formalin. Digital photographs of the cells in the 24-well plates were taken using a Nikon Coolpix 990 digital camera (Nikon Corporation, Tokyo, Japan) connected to a Nikon inverted microscope model TMS.
# [1] = tested on: MDA-MB-231 (MDA-231) cells; assay: MATRIGEL outgrowth after 1 hr pre-incubation, MDA-231; assay type: cell-based, human; conditions: MDA-231, 53 μM pre-incubation 1 hr, 3 days on MATRIGEL, FIG. 1 and FIG. 2
# Protocol: as §1, §2
# (§3) MDA-MB-231 (MDA-231) and Hs578T were cultured in regular culture medium, trypsinized and counted. 100×10^3 of MDA-MB-231 cells or 100×10^3 of Hs578T cells, were separately pre-incubated for 1 hr at 37° C. in a final concentration of 53 μM of SEQ ID NO:4, 53 μM of SEQ ID NO:8 or RCM and plated on MATRIGEL®-coated plates for 3 days. Plates were fixed with 10% formalin. Digital photographs of the cells in the 24-well plates were taken using a Nikon Coolpix 990 digital camera (Nikon Corporation, Tokyo, Japan) connected to a Nikon inverted microscope model TMS.
# HIG-82 cells [2] = assay: Apoptosis by nuclear DNA fragmentation (TUNEL, flow cytometry) in HIG-82 cells; assay type: cell-based, rabbit; conditions: 53 μM; for Percentage of cells containing DNA fragmentation (cells in apoptosis) in HIG-82 cells: 48 hours, TUNEL; for Induction of apoptosis in HIG-82 cells (in words): fragmented nuclear DNA
# Protocol: Adherent HIG-82 cells were incubated at 1.0×10^5 cells/ml for 48 hours with 53 μM final concentration of SEQ ID NO:1, SEQ ID NO:2, SEQ ID NO:5 or SEQ ID NO:6. Since phosphatidylserine/annexin V detection of apoptosis was not reliable after adherent cell harvesting techniques, such as trypsinization (van Engeland, Cytometry, 31:1, 1998), apoptosis in HIG-82 cells was evaluated using flow cytometry by the detection of fragmented DNA by terminal deoxynucleotidyl transferase enzyme-mediated bromodeoxyuridine triphosphate-biotin nick end-labeling (TUNEL) using a commercial assay (APO-BRDU™ kit; BD Pharmingen). The percentage of cells containing nuclear DNA fragmentation was determined. After 24 hours, untreated HIG-82 cells were essentially negative for nuclear DNA fragmentation.
# MEG-01 cells [3] = assay: Apoptosis by phosphatidylserine redistribution (FITC-annexin V flow cytometry) in MEG-01 cells; assay type: cell-based, human; conditions: 48 hours; for Percentage of positive cells for phosphatidylserine (cells in apoptosis) in MEG-01 cells: untreated cells 12%; for Induction of apoptosis in MEG-01 cells (in words): translocation of phosphatidylserine, up to 53.0 μM
# Protocol: Redistribution of plasma membrane phosphatidylserine is a characteristic of cells undergoing apoptosis (Martin et al., J. Exp. Med., 182:1545, 1995). The redistribution of phosphatidylserine in the plasma membrane during apoptosis was measured by flow cytometry using FITC (fluorescein isothiocyanate)-conjugated annexin V (BD Pharmingen, San Diego, Calif.). MEG-01 cells, a human chronic myelogeneous leukemia cell line positive for the Philadelphia chromosome and having a BCR-ABL gene fusion, were incubated at 2.5×10^5 cells/ml for 48 hours with 5.3, 26.5 and 53.0 μM final concentrations of SEQ ID NO:1, SEQ ID NO:2, SEQ ID NO:5, SEQ ID NO:6 and cholesteryl-TEG phosphoramidite molecule. The percentage of cells in apoptosis after exposure to the SEQ ID NOs:1, 2, 5, 6, or cholesteryl-TEG phosphoramidite treatment is reported in Table 2. The percentage of apoptosis in untreated MEG-01 cells was 12%.
# Hs578T cells = assay: MATRIGEL outgrowth after 1 hr pre-incubation, Hs578T; assay type: cell-based, human; conditions: 53 μM pre-incubation 1 hr, 3 days on MATRIGEL, FIG. 1 and FIG. 2
# Protocol: as §1, §2, §3
# [4] = tested on: Streptococcal cell wall-induced arthritis; assay: Streptococcal cell wall-induced arthritis in rats; assay type: in vivo, LEW/N rats; conditions: 1, 10, 100 mg/kg with SCW, monitored daily for two weeks; versus SCW alone and unconjugated sequences; dose-dependent
# Protocol: Streptococcal cell wall-induced arthritis in LEW/N rats resembles a localized neoplasm consisting of, in part, of a proliferative and invasive population of fibroblast-like synovial cells (Yocum et al., Am. J. Pathol. 132:38, 1988). The arthritis is induced in LEW/N rats by intra-articular injection of streptocococcal cell wall (SCW) from group A Streptococcus pyogenes. The rats are divided into 13 groups of 10 rats. On day 0, group 1 rats receive SCW, group 2 rats receive SCW+1 mg/kg SEQ ID NO:1, group 3 rats receive SCW+10 mg/kg SEQ ID NO:1, group 4 rats receive SCW+100 mg/kg SEQ ID NO:1, group 5 rats receive SCW+1 mg/kg SEQ ID NO:2, group 6 rats receive SCW+10 mg/kg SEQ ID NO:2, group 7 rats receive SCW+100 mg/kg SEQ ID NO:2, group 8 rats receive SCW+1 mg/kg SEQ ID NO:5, group 9 rats receive SCW+10 mg/kg SEQ ID NO:5, group 10 rats receive SCW+100 mg/kg SEQ ID NO:5, group 11 rats receive SCW+1 mg/kg SEQ ID NO:6, group 12 rats receive SCW+10 mg/kg SEQ ID NO:6, group 13 rats receive SCW+[…]. The joint inflammation is monitored daily for two weeks.
# MEG-01 cells [5] = assay: MEG-01 cells inoculated subcutaneously in athymic nude mice; assay type: in vivo; conditions: 1, 10, 100 mg/kg, after 4 weeks of treatment; versus saline and unconjugated sequences; dose-dependent
# Protocol: MEG-01 cells are inoculated subcutaneously into athymic nude mice as previously described (Takeo et al., Leukemia 7:1286, 1993). The mice are divided into 13 groups of 10 mice. On day 0, group 1 mice receive saline, group 2 mice receive 1 mg/kg SEQ ID NO:1, group 3 mice receive 10 mg/kg SEQ ID NO:1, group 4 mice receive 100 mg/kg SEQ ID NO:1, group 5 mice receive 1 mg/kg SEQ ID NO:2, group 6 mice receive 10 mg/kg SEQ ID NO:2, group 7 mice receive 100 mg/kg SEQ ID NO:2, group 8 mice receive 1 mg/kg SEQ ID NO:5, group 9 mice receive 10 mg/kg SEQ ID NO:5, group 10 mice receive 100 mg/kg SEQ ID NO:5, group 11 mice receive 1 mg/kg SEQ ID NO:6, group 12 mice receive 10 mg/kg SEQ ID NO:6 and group 13 mice receive 100 mg/kg SEQ ID NO:6 After 4 weeks of treatment, the mice are sacrificed and tumor mass is determined.
# Mpanc-96 cells = assay: MATRIGEL outgrowth after 1 hr pre-incubation, Mpanc-96; assay type: cell-based, human; conditions: Mpanc-96, 53 μM pre-incubation 1 hr, 3 days on MATRIGEL, FIG. 1
# Protocol: as §1, §2
# HIG-82 cells [6] = assay: HIG-82 synovial cell proliferation (MTT reduction); assay type: cell-based, rabbit; conditions: 53 μM, 48 hours
# Protocol: Adherent HIG-82 cells, a synovial cell line, were incubated at 10×10^5 cells/ml for 48 hours with 53 μM (final concentration) of SEQ ID NO:2, SEQ ID NO:3, SEQ ID NO:4, SEQ ID NO:6, SEQ ID NO:7, or SEQ ID NO:8. Cellular proliferation was measured using dimethylthiazol-diphenyl-tetrazolium (MTT) reduction (Mosman et al., J. Immunol. Methods 65:55, 1983). MTT was measured at a wavelength of 570 nm using a multiple spectrophotometer reader (ELX800, Bio-TEK, Instruments Inc., Winooski, Vt.). The percentage of inhibition, calculated as […]
# MEG-01 cells [7] = assay: Cell cycle stage in MEG-01 cells (propidium iodide flow cytometry); assay type: cell-based, human; conditions: 24 h
# Protocol: To determine a cell cycle stage, various assays and procedures known to one skilled in the art may be employed. One such procedure uses a CYCLETEST™ PLUS DNA commercial kit (Becton Dickinson, Franklin Lakes, N.J.). Briefly, nuclei from cells are obtained by dissolving the cell membrane in a nonionic detergent, eliminating the cell cytoskeleton and nuclear proteins with trypsin, digesting the cellular RNA with RNase, and stabilizing the nuclear chromatin with spermine. Propidium iodide is added to the cell nuclei and their fluorescence was analyzed in a flow cytometer equipped with electronic doublet discrimination capability (FACSCalibur, Becton Dickinson, Franklin Lakes, N.J.). Accumulation of cells in G0/G1, early S (SE), mid S (SM), late S (SL) or G2/M phases of the cell cycle may be analyzed using MODFIT LT software (Verity Software House Inc., Topsham, Mass.), or other appropriate software.
# Exponentially growing MEG-01 cells (2×10^5 cells/ml) were incubated for 24 h with 0 μM (control), 53 μM of SEQ ID NO:2 or 53 μM of SEQ ID NO:6. The cells were collected, centrifuged, and cell cycle stage was determined.
substance,measurement,setting,value
5′ OH-GGGTGG(TEG-cholesteryl) 3′ [SEQ ID NO:5],Formation of 3-dimensional structures / cell morphology on MATRIGEL,MCF-7 cells,prevented the formation of 3-dimensional structures
same,Formation of 3-dimensional structures / cell morphology on MATRIGEL,[1],prevented the formation of 3-dimensional structures
same,Percentage of cells containing DNA fragmentation (cells in apoptosis) in HIG-82 cells,HIG-82 cells [2],17%
same,Induction of apoptosis in HIG-82 cells (in words),HIG-82 cells [2],capacity to induce apoptosis
same,Percentage of positive cells for phosphatidylserine (cells in apoptosis) in MEG-01 cells,MEG-01 cells [3]; 5.3 μM,12%
same,Percentage of positive cells for phosphatidylserine (cells in apoptosis) in MEG-01 cells,MEG-01 cells [3]; 26.5 μM,27%
same,Percentage of positive cells for phosphatidylserine (cells in apoptosis) in MEG-01 cells,MEG-01 cells [3]; 53.0 μM,42%
same,Induction of apoptosis in MEG-01 cells (in words),MEG-01 cells [3],capacity to induce apoptosis
same,Formation of 3-dimensional structures / cell morphology on MATRIGEL,Hs578T cells,prevented the formation of 3-dimensional structures
same,Joint inflammation,[4],less inflammation
same,Tumor mass,MEG-01 cells [5],less tumor mass
same,Formation of 3-dimensional structures / cell morphology on MATRIGEL,Mpanc-96 cells,prevented the formation of 3-dimensional structures
"5′ OH-GGGAGG(TEG-cholesteryl) 3′ (3' {TEG-Chol}, sugars by position and backbone not given here) [SEQ ID NO:6, 5′-OH, 3′-TEG cholesteryl synthetic oligonucleotide]",Inhibition of proliferation of synovial HIG-82 cells (in words),HIG-82 cells [6],capacity to inhibit the cellular proliferation
same,"Inhibition of HIG-82 cell proliferation, inhibition (%)",HIG-82 cells [6]; MTT,75%
same,Percentage of cells containing DNA fragmentation (cells in apoptosis) in HIG-82 cells,HIG-82 cells [2],18%
same,Induction of apoptosis in HIG-82 cells (in words),HIG-82 cells [2],capacity to induce apoptosis
same,Induction of cell cycle arrest in MEG-01 cells (in words),MEG-01 cells [7]; 53 μM,capacity to induce cell cycle arrest at the SL+G2/M phase
same,% of cells in phase SM,"MEG-01 cells [7]; MEG-01, 53 μM, untreated 10.8",6.5%
same,% of cells in phase SL + G2/M,"MEG-01 cells [7]; MEG-01, 53 μM, untreated 17.8",41.9%
same,% of cells in phase G0/G1 + SE,"MEG-01 cells [7]; MEG-01, 53 μM, untreated 71.4",51.6%
same,Percentage of positive cells for phosphatidylserine (cells in apoptosis) in MEG-01 cells,MEG-01 cells [3]; 5.3 μM,13%
same,Percentage of positive cells for phosphatidylserine (cells in apoptosis) in MEG-01 cells,MEG-01 cells [3]; 26.5 μM,22%
same,Percentage of positive cells for phosphatidylserine (cells in apoptosis) in MEG-01 cells,MEG-01 cells [3]; 53.0 μM,39%
same,Induction of apoptosis in MEG-01 cells (in words),MEG-01 cells [3],capacity to induce apoptosis
same,Joint inflammation,[4],less inflammation
same,Tumor mass,MEG-01 cells [5],less tumor mass
